Measured values as given in patent US20090137517A1, “SENSITIZING A CELL TO CANCER TREATMENT BY MODULATING THE ACTIVITY OF A NUCLEIC ACID ENCODING RPS27L PROTEIN” (Agency for Science, Technology and Research, priority 2006, published 2009).

How the values were obtained:
Format in all cases: cell-based, human
[1] = test system: RPS27L protein; assay: Western blot of RPS27L protein levels in HCT116 cells; conditions: ADR (1 μM), 5-FU (375 μM), nutlin-3 (10 μM)
Method: (§1) To investigate whether the p53-induced increase in RPS27L mRNA also gives rise to the increased protein levels, immunoblot analysis of p53 wild-type and p53 null HCT116 cells treated with ADR, 5-FU or nutlin-3, a small molecule MDM2 antagonist that directly activates p53 (Vassilev, L. T., Vu, B. T., et al. (2004) “In vivo activation of the p53 pathway by small-molecule antagonists of MDM2” Science, vol. 303, p. 844-848) was performed. […] To extend this observations to other cell lines and to other p53 stimuli, U2OS (human osteosarcoma cell line) and SH-SY5Y (human neuroblastoma cell line) cells (p53 wild type) as well as Saos-2 cells (human osteosarcoma cell line, p53-deficient) were treated with ADR, etoposide phosphate (VP16®) and 5-FU (FIG. 2B). […] Obviously, 5-FU treatment activates a posttranslational mechanism that causes RPS27L protein downregulation in spite of the increased mRNA expression.
(§2) Cells were harvested and lysed with RIPA buffer (50 mM Tris-HCl, pH7.4, 1 mM EDTA, 150 mM NaCl, 1% Nonidet P-40, 0.5% sodium deoxycholate and proteinase inhibitors). The lysates were clarified by centrifugation at 16,000×g for 15 minutes at 4° C. Protein concentrations were determined with the Bradford Protein Assay Kit (Bio-Rad). 20-50 μg protein samples were separated by SDS-PAGE, transferred onto an Immobilon membrane (Millipore) and blotted with antibodies. Anti-p53 and anti-p21 antibodies were from Santa Cruz; anti-MDM2 and anti-Puma antibodies were from Merck. The rabbit polyconal antibody to RPS27L was raised against a 14 amino acid peptide from human RPS27L (SEQ ID NO: 2: LHPSLEEEKKKHKK).

[2] = test system: p53 and p21; assay: Western blot of p53 and p21 protein levels in HCT116 cells; conditions: ADR (1 μM), 5-FU (375 μM), nutlin-3 (10 μM)
Method: as §1, §2

[3] = test system: RPS27L protein; assay: Western blot of RPS27L protein in U2OS, SH-SY5Y and Saos-2 cells; conditions: U2OS and SH-SY5Y (p53 wild type), Saos-2 (p53-deficient); VP16 (10 μM), ADR (1 μM), 5-FU (375 μM)
Method: as §1, §2

[4] = test system: HCT116 cells; assay: Cell cycle and apoptosis analysis by flow cytometry (sub-G1 DNA content)
Method: (§3) Cells cycle analysis was performed by DNA content quantification. The cells were fixed with 70% ethanol and stained with propidium iodide (50 μg/ml) staining. The stained cells were analyzed by FACScalibur (BD Bioscience). For the BrdU incorporation assay and mitochondrial membrane potential detection, the BrdU Flow Kit and JC-1 staining kit (both from BD Bioscience) were used, respectively, following the instruction manual. Stained cells were analyzed by FACScalibur (BD Bioscience) and quantified by using CellQuest software (BD Bioscience).

[5] = test system: HCT116 cells; assay: JC-1 staining, mitochondrial membrane potential by flow cytometry; conditions: control HCT116 cells, ADR treatment
Method: To further define the nature of this cell death response the inventors used another assay, namely flow cytometric detection of cells stained with JC-1. The JC-1-staining identifies cell death events as a result of loss of mitochondria membrane potential (ΔΨm).
as §3

[6] = test system: HCT116 cells; assay: Alkaline single cell gel electrophoresis (comet) assay; conditions: RPS27L-depleted versus control HCT116 cells, ADR 24 h
Method: In order to examine DNA damage directly, the comet assay was used next. […] Cells were incubated with ADR for 24 h and were harvested and processed for the comet assay.
The treated cells were subjected to a single cell gel electrophoresis (comet) assay as described earlier (Poonepalli, A., Balakrishnan, L., et al. (2005), supra) and stained with SYBR green dye. The tail moment of the comets was generated using the Metasystems (Germany) analysis software ‘Comet imager version 1.2’. Fifty randomly chosen comets were analyzed per sample. The extent of DNA damage observed was expressed as tail moment, which corresponded to the fraction of the DNA in the tail of the comet.

[7] = test system: HCT116 cells; assay: Cytokinesis blocked micronucleus (CBMN) assay; conditions: RPS27L-depleted HCT116 cells, ADR (1 μM) 24 h
Method: In order to examine DNA damage directly, the comet assay was used next. The comet assay is a single cell gel electrophoresis assay in which damaged DNA migrates to form a “comet tail” that is proportional to the amount of DNA damage (Collins, A. R. (2004) “The comet assay for DNA damage and repair: principles, applications, and limitations” Mol Biotechnol, vol. 26, p. 249-261). Cells were incubated with ADR for 24 h and were harvested and processed for the comet assay. […] We then investigated whether elevated DNA damage has caused chromosome instability. […]
After treatment with ADR, cells were incubated with cytochalasin B (Sigma, 5 μg/ml) for an additional 22 h. […] Fixed cells were dropped onto clean slides and stained with 3 μg/ml Acridine Orange (which differentially stains cytoplasm and nucleus) (Hande, M. P., et al. (1996) “Induction and persistence of cytogenetic damage in mouse splenocytes following whole-body X-irradiation analysed by fluorescence in situ hybridization. II. Micronuclei.” Int J Radiat Biol.; vol. 70(4), p. 375-83; Hande, M. P., et al. (1997) “Induction and persistence of cytogenetic damage in mouse splenocytes following whole-body X-irradiation analysed by fluorescence in situ hybridization. III. Chromosome malsegregation/aneuploidy” Mutagenesis, vol. […] One thousand binucleated cells were scored for each sample.

[8] = test system: p53 and its downstream targets p21, puma and MDM2; assay: Immunoblot of p53 and its targets in control and RPS27L-depleted HCT116 cells; conditions: RPS27L-depleted versus control HCT116 cells
Method: (§4) As RPS27L depletion sensitizes only p53 wild-type cells to DNA damage, the inventors next assessed the effect of RPS27L loss on p53 signaling pathway. The effects of RPS27L depletion on p53 and its downstream targets p21, puma and MDM2 was examined by immunoblot analysis. […] By contrast, p53-dependent activation of Puma and MDM2 were not decreased upon RPS27L loss.
as §2

[9] = test system: p21; assay: Immunoblot of p21 in U2OS cells with transient RPS27L knockdown; conditions: RPS27L knocked down by transient transfection, ADR (1 μM) 24 hours
Method: as §4, §2

Structure (SMILES): COc1cccc2c1C(=O)c1c(O)c3c(c(O)c1C2=O)C[C@@](O)(C(=O)CO)C[C@@H]3O[C@H]1C[C@H](N)[C@H](O)[C@H](C)O1 [ADR, adriamycin]
- RPS27L protein level [1]: increased RPS27L protein levels
- p53 and p21 protein [2]: accumulation of p53 and p21
- RPS27L protein level [3]: p53-dependent upregulation of RPS27L protein
- cell cycle and apoptosis response ([4]; HCT116 p53+/+ and p53−/−, ADR (1 μM) or 5-FU (375 μM) for 48 h): p53-dependent cell cycle arrest
- cell death (sub-G1 DNA content) ([4]; RPS27L depletion in p53 null HCT116 cells, ADR 48 h): did not give rise to the same result
- cellular response ([4]; p53 wild-type HCT116 expressing control shRNA, ADR 48 h): growth arrest response
- percentage of cells with lower membrane potential (ΔΨm) [5]: 13.5%
- DNA damage (comet tail moment) [6]: significantly enhanced
- micronucleus frequency [7]: increased micronucleus frequency
- p53-dependent activation of Puma and MDM2 ([8]; ADR (1 μM)): not decreased
- effect of RPS27L depletion on ADR-induced p53 activation ([8]; ADR (1 μM) 24 and 48 hours): no significant effect
- p21 accumulation in response to ADR ([8]; ADR (1 μM) 24 and 48 hours): significant reduced
- p21 protein level [9]: substantial decrease
